The record followed here is patent EP0421697A2, “Contrast agents and methods for enhancing magnetic resonance imaging” (SMITHKLINE BEECHAM CORPORATION, priority 1989, dated 1991).

The subject of data set [1] is normal rat kidney. The data set can be described thus: MR imaging of rat kidney after i.v. bolus of Yb-DTPA (signal intensity ratio Ipapilla/Imuscle over time). The settings on record: 1 ml of a 50 mM solution in saline, GE SIGNA 1.5T, images every 20 seconds, Figure 1. Format: in vivo, rats. The source says:
After administration of the chelate solution to the subject, imaging with any conventional MR imaging system may be begun. Preferably, a fast imaging sequence, such as gradient echo imaging is used. […] This graph plots the ratio of signal intensity of region of interest to signal intensity of surrounding muscle tissue over time, as shown, for example in Figure 1, discussed below.
As in the above comparative example, rats were provided with an infusion line and strapped in an MRI magnet GE SIGNA 1.5T. 1 ml of a 50 mM solution of Yb-DTPA in saline was injected (intravenously) as a bolus. Images were collected every 20 seconds and the signal intensity from the rat papilla (Ipapilla) and signal intensity for the surrounding rat muscle (Imuscle) were measured. […] The area under the curve is an index of GFR.

On the set-up of data set [2]: species or system Male Sprague-Dawley rats. The settings on record: rat, in vivo. The protocol: Male Sprague-Dawley rats (200 to 350 g; Charles River Breeding Laboratories, Raleigh, NC) were anesthetized with Inactin (100 mg/kg, i.p.; Byk Gulden). A jugular vein and femoral artery were isolated and cannulated with PE-50 polyethylene tubing (Clay-Adams). The femoral artery cannula was connected to a pressure transducer (Gould-Statham Model P23id) for blood pressure and heart rate recording. The jugular vein cannula was connected to an infusion pump (Sage Model 352) and an infusion of inulin (Inutest, Laevasan-Gesellschaft; 10% in 0.9% NaCl) and ytterbium-diethyltriaminepentaacetic acid (Yb-DTPA in water 6.0 mg/ml) was initiated at a rate of […]. […]
Urine volumes were measured gravimetrically (specific gravity = 1) and 50 µl was removed for determination of inulin and Yb-DTPA concentrations. Inulin concentrations in plasma and urine samples were determined according to the method of Heyrosky (1956). Yb concentrations were determined by inductively-coupled plasma emission spectrometry using a Model JY-38P (Instruments SA, Inc.) and a grating of 3600 lines/mm. The 369.42 nm Yb line and 5 one-second measurements were taken at the end of each sample aspiration to provide an average reading (Bumbier, et al., 1984). […] Plasma concentrations of inulin and Yb-DTPA for C₂ were estimated from values measured for C₁ and C₃. […]

For the substance “ytterbium-diethylenetriamine pentaacetic acid [Yb-DTPA]”, the “ratio of signal intensities Ipapilla/Imuscle against time” value in data set [1] is “sharp decrease in the ratio and the slow rise”. In addition, in data set [2], the “Mean (± SEM) renal clearance (Cin, CYb)” value is on record as 1101 ± 47 and the “share of renal elimination via glomerular filtration” value is roughly 85%.
